Reference: US20230210831A1, “CHRONIC KIDNEY DISEASE TREATMENT OR PREVENTION METHOD” (Japan Tobacco Inc., priority 2019, published 2023)

Tests used:
Format in all cases: cell-based
[1] = system: Salmonella typhimurium TA98; test: Ames test (reverse mutation test), TA98
Experimental: (§1) The solvent used herein was dimethyl sulfoxide (DMSO, 100 µL/plate).
(§2) The mixtures were preincubated at 37° C. for 20 minutes while shaking. […] Two plates per treatment were used.

[2] = system: Salmonella typhimurium TA1535; test: Ames test (reverse mutation test), TA1535
Experimental: as §1, §2

[3] = system: Salmonella typhimurium TA1537; test: Ames test (reverse mutation test), TA1537
Experimental: as §1, §2

[4] = system: Salmonella typhimurium TA100; test: Ames test (reverse mutation test), TA100
Experimental: as §1, §2

Escherichia coli WP2uvrA = test: Ames test (reverse mutation test), WP2uvrA
Experimental: as §1, §2

## Cc1ccc(-n2nc(N)cc2-c2cccc(OCC(F)(F)F)c2)cc1 [Metabolite F]
[1]; S9 Mix +, dose 2.3 µg/plate
  Number of revertant colonies TA98: 93
[1]; S9 Mix +, dose 6.9 µg/plate
  Number of revertant colonies TA98: 218
[1]; S9 Mix +, dose 21 µg/plate
  Number of revertant colonies TA98: 522
[1]; S9 Mix +, dose 62 µg/plate
  Number of revertant colonies TA98: 484
[1]; S9 Mix +, dose 185 µg/plate
  Number of revertant colonies TA98: 287
[1]; S9 Mix +, dose 556 µg/plate
  Number of revertant colonies TA98: 151
[1]; S9 Mix +, dose 1667 µg/plate
  Number of revertant colonies TA98: 61
[1]; S9 Mix +, dose 5000 µg/plate
  Number of revertant colonies TA98: 0
[1]; S9 Mix -, dose 2.3 µg/plate
  Number of revertant colonies TA98: 25
[1]; S9 Mix -, dose 6.9 µg/plate
  Number of revertant colonies TA98: 32
[1]; S9 Mix -, dose 21 µg/plate
  Number of revertant colonies TA98: 21
[1]; S9 Mix -, dose 62 µg/plate
  Number of revertant colonies TA98: 21
[1]; S9 Mix -, dose 185 µg/plate
  Number of revertant colonies TA98: 20
[1]; S9 Mix -, dose 556 µg/plate
  Number of revertant colonies TA98: 19
[1]; S9 Mix -, dose 1667 µg/plate
  Number of revertant colonies TA98: 6
[1]; S9 Mix -, dose 5000 µg/plate
  Number of revertant colonies TA98: 0
[1]; TA98 with S9 mix
  potential to induce reverse mutations: showed potential to induce reverse mutations
[2]; S9 Mix +, dose 1667 µg/plate
  Number of revertant colonies TA1535: 0
[2]; S9 Mix -, dose 556 µg/plate
  Number of revertant colonies TA1535: 0
[2]; S9 Mix -, dose 1667 µg/plate
  Number of revertant colonies TA1535: 0
[3]; S9 Mix +, dose 2.3 µg/plate
  Number of revertant colonies TA1537: 41
[3]; S9 Mix +, dose 6.9 µg/plate
  Number of revertant colonies TA1537: 92
[3]; S9 Mix +, dose 21 µg/plate
  Number of revertant colonies TA1537: 157
[3]; S9 Mix +, dose 62 µg/plate
  Number of revertant colonies TA1537: 227
[3]; S9 Mix +, dose 185 µg/plate
  Number of revertant colonies TA1537: 151
[3]; S9 Mix +, dose 556 µg/plate
  Number of revertant colonies TA1537: 54
[3]; S9 Mix +, dose 1667 µg/plate
  Number of revertant colonies TA1537: 39
[3]; S9 Mix +, dose 5000 µg/plate
  Number of revertant colonies TA1537: 3
[3]; S9 Mix -, dose 2.3 µg/plate
  Number of revertant colonies TA1537: 9
[3]; S9 Mix -, dose 6.9 µg/plate
  Number of revertant colonies TA1537: 16
[3]; S9 Mix -, dose 21 µg/plate
  Number of revertant colonies TA1537: 16
[3]; S9 Mix -, dose 62 µg/plate
  Number of revertant colonies TA1537: 10
[3]; S9 Mix -, dose 185 µg/plate
  Number of revertant colonies TA1537: 3
[3]; S9 Mix -, dose 556 µg/plate
  Number of revertant colonies TA1537: 0
[3]; S9 Mix -, dose 1667 µg/plate
  Number of revertant colonies TA1537: 0
[3]; S9 Mix -, dose 5000 µg/plate
  Number of revertant colonies TA1537: 0
[3]; TA1537 with S9 mix
  potential to induce reverse mutations: showed potential to induce reverse mutations
[4]; S9 Mix +, dose 2.3 µg/plate
  Number of revertant colonies TA100: 553
[4]; S9 Mix +, dose 6.9 µg/plate
  Number of revertant colonies TA100: 1417
[4]; S9 Mix +, dose 21 µg/plate
  Number of revertant colonies TA100: 2888
[4]; S9 Mix +, dose 62 µg/plate
  Number of revertant colonies TA100: 3713
[4]; S9 Mix +, dose 185 µg/plate
  Number of revertant colonies TA100: 2889
[4]; S9 Mix +, dose 556 µg/plate
  Number of revertant colonies TA100: 1288
[4]; S9 Mix +, dose 1667 µg/plate
  Number of revertant colonies TA100: 1576
[4]; S9 Mix +, dose 5000 µg/plate
  Number of revertant colonies TA100: 1160
[4]; S9 Mix -, dose 2.3 µg/plate
  Number of revertant colonies TA100: 107
[4]; S9 Mix -, dose 6.9 µg/plate
  Number of revertant colonies TA100: 104
[4]; S9 Mix -, dose 21 µg/plate
  Number of revertant colonies TA100: 115
[4]; S9 Mix -, dose 62 µg/plate
  Number of revertant colonies TA100: 109
[4]; S9 Mix -, dose 185 µg/plate
  Number of revertant colonies TA100: 93
[4]; S9 Mix -, dose 556 µg/plate
  Number of revertant colonies TA100: 62
[4]; S9 Mix -, dose 1667 µg/plate
  Number of revertant colonies TA100: 58
[4]; S9 Mix -, dose 5000 µg/plate
  Number of revertant colonies TA100: 40
[4]; TA100 with S9 mix
  potential to induce reverse mutations: showed potential to induce reverse mutations
Escherichia coli WP2uvrA; S9 Mix +, dose 2.3 µg/plate
  Number of revertant colonies WP2uvrA: 25
Escherichia coli WP2uvrA; S9 Mix +, dose 6.9 µg/plate
  Number of revertant colonies WP2uvrA: 20
Escherichia coli WP2uvrA; S9 Mix +, dose 21 µg/plate
  Number of revertant colonies WP2uvrA: 30
Escherichia coli WP2uvrA; S9 Mix +, dose 62 µg/plate
  Number of revertant colonies WP2uvrA: 24
Escherichia coli WP2uvrA; S9 Mix +, dose 185 µg/plate
  Number of revertant colonies WP2uvrA: 20
Escherichia coli WP2uvrA; S9 Mix +, dose 556 µg/plate
  Number of revertant colonies WP2uvrA: 24
Escherichia coli WP2uvrA; S9 Mix +, dose 1667 µg/plate
  Number of revertant colonies WP2uvrA: 16
Escherichia coli WP2uvrA; S9 Mix +, dose 5000 µg/plate
  Number of revertant colonies WP2uvrA: 6
Escherichia coli WP2uvrA; S9 Mix -, dose 2.3 µg/plate
  Number of revertant colonies WP2uvrA: 24
Escherichia coli WP2uvrA; S9 Mix -, dose 6.9 µg/plate
  Number of revertant colonies WP2uvrA: 23
Escherichia coli WP2uvrA; S9 Mix -, dose 21 µg/plate
  Number of revertant colonies WP2uvrA: 26
Escherichia coli WP2uvrA; S9 Mix -, dose 62 µg/plate
  Number of revertant colonies WP2uvrA: 19
Escherichia coli WP2uvrA; S9 Mix -, dose 185 µg/plate
  Number of revertant colonies WP2uvrA: 13
Escherichia coli WP2uvrA; S9 Mix -, dose 556 µg/plate
  Number of revertant colonies WP2uvrA: 74
Escherichia coli WP2uvrA; S9 Mix -, dose 1667 µg/plate
  Number of revertant colonies WP2uvrA: 8
Escherichia coli WP2uvrA; S9 Mix -, dose 5000 µg/plate
  Number of revertant colonies WP2uvrA: 5
Escherichia coli WP2uvrA; WP2uvrA without S9 mix
  potential to induce reverse mutations: showed potential to induce reverse mutations
